This test in a line: Inhibition of rate of ADP-stimulated gel-filtered human platelet aggregation mediated by integrin alphaIIb beta-3 in PLAGGIN assay.

As usually defined, the IC50 is the concentration that inhibits the measured activity by half. Read a high IC50 as lower potency.

Each structure is given as a SMILES string.

On to `O=C(O)C[C@H](NC(=O)CN1CCCC(CCc2ccc3c(n2)NCCC3)C1=O)c1cccnc1` (stereo partly drawn) [3-(2-{2-Oxo-3-[2-(5,6,7,8-tetrahydro-[1,8]naphthyridin-2-yl)-ethyl]-piperidin-1-yl}-acetylamino)-3-(S)-pyridin-3-yl-propionic acid], for which the IC50 was > 10 µM.

As to `O=C(O)C[C@H](NC(=O)CN1CC[C@H](CCc2ccc3c(n2)NCCC3)C1=O)c1cccnc1` [3-(2-{(S)-2-Oxo-3-[2-(5,6,7,8-tetrahydro-[1,8]naphthyridin-2-yl)-ethyl]-pyrrolidin-1-yl}-acetylamino)-3-(S)-pyridin-3-yl-propionic acid], the IC50 was > 10 µM.

As to `O=C(O)CCNC(=O)CNC(=O)CCCc1ccc2c(n1)NCCC2` [3-[2-(4-5,6,7,8-Tetrahydro-[1,8]naphthyridin-2-yl-butyrylamino)-acetylamino]-propionic acid], the IC50 was > 10 µM.

As to `O=C(O)C[C@H](NC(=O)CN1CCN(CCc2ccc3c(n2)NCCC3)C1=O)c1cccnc1` [(S)-3-(2-{2-Oxo-3-[2-(5,6,7,8-tetrahydro-[1,8]naphthyridin-2-yl)-ethyl]-imidazolidin-1-yl}-acetylamino)-3-pyridin-3-yl-propionic acid], 7.1 µM corresponded to half-maximal inhibition (IC50). Next, `O=C(O)C[C@H](NC(=O)CN1CC[C@@H](CCc2ccc3c(n2)NCCC3)C1=O)c1cccnc1` [(S)-3-(2-{(R)-2-Oxo-3-[2-(5,6,7,8-tetrahydro-[1,8]naphthyridin-2-yl)-ethyl]-pyrrolidin-1-yl}-acetylamino)-3-pyridin-3-yl-propionic acid]: > 10 µM; `C#C[C@H](CC(=O)O)NC(=O)CN1CC[C@H](CCc2ccc3c(n2)NCCC3)C1=O` [(S)-3-(2-{(S)-2-Oxo-3-[2-(5,6,7,8-tetrahydro-[1,8]naphthyridin-2-yl)-ethyl]-pyrrolidin-1-yl}-acetylamino)-pent-4-ynoic acid]: > 10 µM. Next, `O=C(O)C[C@H](NC(=O)CNC(=O)CCCc1ccc2c(n1)NCCC2)c1cccnc1` [(S)-3-Pyridin-3-yl-3-[2-(4-5,6,7,8-tetrahydro-[1,8]naphthyridin-2-yl-butyrylamino)-acetylamino]-propionic acid]: > 10 µM; `C#C[C@H](CC(=O)O)NC(=O)CNC(=O)CCCc1ccc2c(n1)NCCC2` [(S)-3-[2-(4-5,6,7,8-Tetrahydro-[1,8]naphthyridin-2-yl-butyrylamino)-acetylamino]-pent-4-ynoic acid]: > 10 µM.
